Results as given in US6329378A, “Hydrazone, hydrazine and thiosemicarbazone derivatives as antifungal agents” (Anadys Pharmaceuticals, Inc., priority 2000, dated 2001).
Values after ≈ are worked out from the molar mass of the structure shown.

What was measured:
A. Nidulans = test: MIC, broth microdilution (NCCLS M27-A), A. nidulans; format: cell-based; settings: 35° C., 48 hours; for MIC: Aspergillus nidulans
Description: (§1) Compounds of the invention were tested for antifungal susceptibility using broth microdilution assay established by the National Committee for Clinical Laboratory Standards, in NCCLS Document M27-A, which is hereby incorporated by reference. Minimum inhibitory concentrations (MICs) and minimum fungicidal concentrations (MFCs) were measured.
Filamentous fungi (Aspergillus spp.) is cultured on PDA plates in a 35° C. incubator. Inoculum of Aspergillus for susceptibility testing is prepared from plates incubated at 35° C. for 5 days. Colonies are covered with 5 ml of sterile 0.85% saline (8.5 g/liter NaCl) and gently rocked for 10-15 minutes. To dislodge the conidia, an automatic pipettor is used to gently wash over the colonies. The saline solution is removed from the plate and the heavy particles are allowed to settle for 3-5 minutes. The upper suspension is removed and vortexed for 15 sec. The turbidity of the solution is determined by measuring the absorbance in a spectrophotometer (Shimadzu UV-1201S UV-VIS Spectrophotometer) set at 600 nm. An absorbance value between 0.1 and 0.4 is required for an accurate reading.
The cell suspension is diluted with the appropriate medium (typically RPMI-1640) to OD600 =0.0004. The final suspension should contain approximately 3×10^3 cfu per ml (this is a 2×concentrationinoculum). Two 100 μl aliquots of this dilution are spread on SDA plates and incubated at 35° C. for 1-2 days to determine the precise number of colony forming units. An acceptable range for the inoculum (2×) is 1-5×10^3 cfu/ml (100-500 for 100 μl). Following two-fold dilution of the inoculum with compound, the final concentration of cells will be 0.5-2.5×10^3 per ml. The inoculum is kept at 4° C. and used within a few hours.
(§2) Stock solutions and concentrations tested will vary from compound to compound. In general, though, stock solutions of 12.8 mg/ml in DMSO (Sigma D-8779) are prepared. This will allow for a 128 μg/ml starting test concentration containing 1% DMSO. Stock solutions are stored at -20° C. and dilutions for antifungal testing are freshly prepared before each assay.
(§3) Stock solutions of Amphotericin B and Itraconazole are prepared at 1.6 mg/ml in DMSO. Amphotericin B is sold as a powder that is approximately 80% Amphotericin B. Stock solutions are made accordingly (2.0 mg of powder for a 1 ml solution of 1.6 mg/ml Amphotericin B).
(§4) Both of these (control and test compounds) represent 1:50 dilutions. For an assay with three fungal strains, 40 microliters of a stock solution are diluted to 2.0 ml with room temperature medium.
(§5) Antifungal susceptibility tests are setup in polystyrene, 96-well, flat bottom plates (Costar 9017). To every well in columns 2-12 is added 100 microliters of media. An electronic multichannel (12) pipettor with no tip on channel one is used. To every well in column one is added 200 microliters of diluted compound (32 μg/ml for Amphotericin B and Itraconazole controls, 256 μg/ml for test compounds, 100-fold dilution for natural product extracts). A manual multichannel (8) pipettor is then used to set up a series of 2-fold dilutions. 100 microliters is removed from each well of column one and mixed with 100 microliters in column 2. This is done successively (column two to column three etc.) to produce a set of 11 serial dilutions (column 12 is a drug free control).
(§6) To every well in two rows, 100 μl of inoculum (2×) of a single strain is added. To the final two rows on the plate (G & H), only media is added. Addition of inoculum is best accomplished using an electronic multichannel (12) pipettor. This setup (see below) creates a starting cell density of […] (100-500 per well) and drug concentration ranging from 16 μg/ml to […] for controls (Amphotericin B and Itraconazole), 128 μg/ml to 0.125 μg/ml for pure test compounds, and 200 to 204, 800-fold dilutions for natural product extracts.

C. albicans [1] = test: Minimum fungicidal concentration (MFC), C. albicans; format: cell-based, Candida albicans; settings: viability on SDA plate, 35° C.; for MFC: Candida albicans
Description: as §1
(§7) Yeasts (Saccharomyces cerevisiae and Candida albicans) are cultured on SDA plates in a 35° C. incubator. Strains on SDA plates are stored at 4° C. and used as working stock cultures.
(§8) Inoculum for susceptibility testing is prepared from fresh 24 hour cultures. 5-10 colonies are scraped from the plate and suspended in three milliliters of sterile 0.85% saline (8.5 g/liter NaCl). The cell density of the solution is determined by measuring the absorbance in a spectrophotometer (Shimadzu UV-1201S UV-VIS Spectrophotometer) set at 600 nm. An absorbance value between 0.1 and 0.4 is required for an accurate reading.
(§9) For Candida albicans strains ATCC 10231, 1.0 OD600 unit is approximately 10^7 cells per ml. For Saccharomyces cerevisiae strain CTY552, 1.0 OD600 unit is slightly less than 10^7 cells per ml. Cell suspensions are diluted with the appropriate medium (typically RPMI-1640) to OD600 =0.0003 for Candida and OD600 =0.0004 for Saccharomyces. The diluted suspension contains approximately 3×10^3 cells per ml (this is a 2×concentration inoculum). Two 100 μl aliquots of this dilution are spread on SDA plates and incubated at 35° C. for 1-2 days to determine the precise number of colony forming units. An acceptable range for the inoculum (2×) is 1-5×10^3 cfu/ml (100-500 for 100 μl). Following two-fold dilution of the inoculum with compound, the final concentration of cells will be 0.5-2.5×10^3 per ml. The inoculum is kept at 4° C. and used within a few hours.
as §2, §3
(§10) Stock solutions of control compounds (1.6 mg/ml, Amphotericin B or Itraconazole) are initially diluted in medium to a concentration of 32 μg/ml while stock solutions of test compounds (typically 12.8 mg/ml) are diluted to 256 μg/ml. Both of these (control and test compounds) represent 1:50 dilutions. For an assay with three fungal strains, 40 microliters of a stock solution are diluted to 2.0 ml with room temperature medium.
as §5
(§11) To every well in two rows, 100 μl of inoculum (2×) of a single strain is added. To the final two rows on the plate (G & H), only media is added. Addition of inoculum is best accomplished using an electronic multichannel (12) pipettor. […]

S. serevisiae = test: MIC, broth microdilution (NCCLS M27-A), S. cerevisiae; format: cell-based, Saccharomyces cerevisiae; settings: for MIC S. serevisiae: broth microdilution, 35° C., 48 hours, S. cerevisiae CTY552; for MIC: Saccharomyces cerevisiae, 48 h, read-out: MIC S. serevisiae
Description: as §1, §7, §8, §9, §2, §3, §10, §5, §11

C. albicans [2] = test: MIC, broth microdilution (NCCLS M27-A), C. albicans; format: cell-based, Candida albicans; settings: 48 hours, C. albicans ATCC 10231; for MIC C. albicans: 35° C.; for MIC: Candida albicans, ATCC10231, 35° C.
Description: as §1, §7, §8, §9, §2, §3, §4, §5, §6

| Molecule | MIC A. Nidulans (A. Nidulans) [µg/mL] | MFC C. albicans (C. albicans [1]) [µg/mL] | MIC S. serevisiae (S. serevisiae) [µg/mL] | MIC C. albicans (C. albicans [2]) [µg/mL] | MIC (A. Nidulans) [µg/mL] | MFC (C. albicans [1]) [µg/mL] | MIC (S. serevisiae) [µg/mL] | MIC (C. albicans [2]) [µg/mL] |
| --- | --- | --- | --- | --- | --- | --- | --- | --- |
| 3,5-dichloro-2-hydroxybenzaldehyde-N-(3-chloro-2-pyrazinyl)hydrazine [(16)] | 128 | > 128 | 8 | 8 |  |  |  |  |
| COc1nccnc1N/N=C/c1cc(Cl)cc(Cl)c1O [(1), 3,5-dichloro-2-hydroxybenzaldehyde-N-(3-methoxy-2-pyrazinyl)hydrazone] |  |  |  |  | 2 (≈ 6.39 µM) | > 128 | 1 (≈ 3.19 µM) | 1 (≈ 3.19 µM) |
| COc1nccnc1NN=Cc1cc(Cl)ccc1O [(2)] |  |  |  |  | 2 (≈ 7.18 µM) | > 128 | 1 (≈ 3.59 µM) | 1 (≈ 3.59 µM) |
| COc1nccnc1NN=Cc1cccc(F)c1O [(3)] |  |  |  |  | 2 (≈ 7.63 µM) | > 128 | 1 (≈ 3.81 µM) | 0.5 (≈ 1.91 µM) |
| COc1nccnc1NN=Cc1ccccc1O [(4)] |  |  |  |  | 2 (≈ 8.19 µM) | > 128 | 1 (≈ 4.09 µM) | 1 (≈ 4.09 µM) |
| COc1nccnc1N/N=C/c1ccccn1 [(10)] |  |  |  |  | 2 (≈ 8.72 µM) | > 128 | 1 (≈ 4.36 µM) | 2 (≈ 8.72 µM) |
| CCOc1cccc(C=NNc2nccnc2OC)c1O [(11), 3-ethoxy-2-hydroxybenzaldehyde-N-(3-methoxy-2-pyrazinyl)hydrazone] |  |  |  |  | 2 (≈ 6.94 µM) | > 128 | 1 (≈ 3.47 µM) | 2 (≈ 6.94 µM) |
| COc1nccnc1NN=Cc1cccc([N+](=O)[O-])c1O [(12), 2-hydroxy-3-nitrobenzaldehyde-N-(3-methoxy-2-pyrazinyl)hydrazone] |  |  |  |  | 8 (≈ 27.7 µM) | > 128 | 4 (≈ 13.8 µM) | 4 (≈ 13.8 µM) |
| COc1ccc(C=NNc2nccnc2OC)c(O)c1 [(13), 2-hydroxy-4-methoxybenzaldehyde-N-(3-methoxy-2-pyrazinyl)hydrazone] |  |  |  |  | 4 (≈ 14.6 µM) | > 128 | 0.5 (≈ 1.82 µM) | 1 (≈ 3.65 µM) |
| COc1cc(Br)cc(C=NNc2nccnc2OC)c1O [(14), 5-bromo-2-hydroxy-3-methoxybenzaldehyde-N-(3-methoxy-2-pyrazinyl)hydrazone] |  |  |  |  | 1 (≈ 2.83 µM) | > 128 | 0.5 (≈ 1.42 µM) | 0.5 (≈ 1.42 µM) |
| COc1ccc(Br)c(C=NNc2nccnc2OC)c1O [(15), 6-bromo-2-hydroxy-3-methoxybenzaldehyde-N-(3-methoxy-2-pyrazinyl)hydrazone] |  |  |  |  | 8 (≈ 22.7 µM) | > 128 | 1 (≈ 2.83 µM) | 1 (≈ 2.83 µM) |
| Oc1c(Cl)cc(Cl)cc1/C=N/NC(=S)Nc1cc(C(F)(F)F)cc(C(F)(F)F)c1 [(35), N-[3,5bis(trifluoromethyl)phenyl]-2-[(E)-(3,5-dichloro-2-hydroxyphenyl)methylidene]-1-hydrazonecarbothioamide] |  |  |  |  | 4 (≈ 8.4 µM) | > 128 | 2 (≈ 4.2 µM) | 2 (≈ 4.2 µM) |
| Oc1ccccc1/C=N/NC(=S)Nc1cccc(F)c1 [(40)] |  |  |  |  | > 128 |  | 2 (≈ 6.91 µM) | 32 (≈ 111 µM) |
| S=C(N/N=C/c1ccccn1)Nc1ccccc1 [(41)] |  |  |  |  | > 128 |  | > 128 | > 128 |
| COC(=O)c1ccc(COc2ccc(/C=N/NC(=S)Nc3cccc(C(F)(F)F)c3)c(O)c2)cc1 [(43)] |  |  |  |  | 0.25 (≈ 0.497 µM) |  | 0.5 (≈ 0.993 µM) | 0.5 (≈ 0.993 µM) |
| Oc1cc(OCc2ccccc2)ccc1/C=N/NC(=S)Nc1ccc(Cl)cc1 [(45), N-[(4-chloro-phenyl)]-2-[(E)-(4-benzyloxy-2-hydroxyphenyl)methylidene]-1-hydrazonecarbothiamide] |  |  |  |  | 0.5 (≈ 1.21 µM) |  | 0.5 (≈ 1.21 µM) | 1 (≈ 2.43 µM) |
| COC(=O)c1ccc(COc2ccc(/C=N/NC(=S)Nc3ccc(Cl)cc3)c(O)c2)cc1 [(46)] |  |  |  |  | 0.25 (≈ 0.532 µM) |  | 0.25 (≈ 0.532 µM) | 1 (≈ 2.13 µM) |
| O=C(O)c1ccc(COc2ccc(/C=N/NC(=S)Nc3ccc(Cl)cc3)c(O)c2)cc1 [(47), N-[(4-chloro-phenyl)]-2-[(E)-(4-carboxyl-benzyloxy-2-hydroxyphenyl)methylidene]-1-hydrazonecarbothiamide] |  |  |  |  | 0.5 (≈ 1.1 µM) |  | 1 (≈ 2.19 µM) | 2 (≈ 4.39 µM) |
| Cc1cc(C)cc(NC(=S)N/N=C/c2ccc(OCc3ccccc3)cc2O)c1 [(50)] | 0.5 (≈ 1.23 µM) |  | 0.5 (≈ 1.23 µM) | 1 (≈ 2.47 µM) |  |  |  |  |
| O=S(=O)(c1ccc(NC(=S)N/N=C/c2ccc(OCc3ccccc3)cc2O)cc1)N1CCCCC1 [(51)] | 1 (≈ 1.91 µM) |  | 0.5 (≈ 0.953 µM) | 16 (≈ 30.5 µM) |  |  |  |  |
| N-[(3-trifluoromethyl)phenyl)]-2-[(E)-(4-allyl-phenyl)-benzyloxy-2-hydroxyphenyl)methylidene]-1-hydrazonecarbothiamide [(44)] | 2 |  | 2 | 8 |  |  |  |  |
